In patent publication US10100041B2, “Pyrazolyl substituted tetrahydropyranylsulfones” (GRÜNENTHAL GMBH, priority 2015, dated 2018):

Target: T1, Human CaV2.2 channels (Homo sapiens, UniProt Q00975)
T1 construct: expressed in transfected cells
Test: Fluorescence assay for CaV2.2 channels using potassium depolarization to induce channel opening (FLIPR, Fluo 4)
Format: cell-based
Settings: 30 mM KCl (alternative assay buffer, inactivated channel state), HEK293 cells; for inhibition at 3 µM: HEK293, 3 μM test compound, read-out: Activity Category: %-Inhib (CaV2.2) @3 μM @30 mM KCl
Excerpt: In the process, the Ca^2+ influx is quantified in the FLIPR assay with the aid of a Ca^2+-sensitive dye (type Fluo-4, Molecular Probes Europe BV, Leiden, the Netherlands) in a fluorescent imaging plate reader (FLIPR 3, Molecular Devices, Sunnyvale, USA), as described hereinafter.
2.1 Fluorescence Assay for CaV2.2 Channels Using Potassium Depolarization to Induce Channel Opening
Human CaV2.2 channels were stably expressed in HEK293 cells together with alpha2-delta and beta subunits of voltage gated calcium channels. In addition, an inwardly rectifying potassium channel (Kir2.3) was stably expressed in these cells to augment control of the cell membrane potential by the concentration of extracellular potassium ions. Raise of the extracellular potassium concentration leads to depolarization of the membrane potential and thus regulates the voltage dependent state of CaV2.2 channels. For preparation, cells were seeded in black poly-D-lysine coated 96-well plates (Becton Dickinson, Biocoat 4640) in 100 μL medium [500 mL DMEM/F-12 plus Glutamax (Invitrogen 31331-093) plus 5.5 mL MEM NEAA 100× (Invitrogen 11140-035) plus 50 mL FBS decomplemented (Invitrogen 10270-106) plus 200 μg/mL Geneticin (Invitrogen 10131-027) plus 50 μg/mL Hygromycin B (Invitrogen 10687-010) plus 2 μg/mL Blasticidin (anti-b15b Invivo-Gen) plus 0.2 μg/mL Puromycin (A 11138-03)] at a cell density of 30.000 cells per well. Plates were incubated at 37° C. (5% CO2) for 20 to 23 h. On the day of experiment medium was discarded and cells were loaded with Fluo 4 by addition of 100 μL of basic assay buffer (10 mM HEPES, 1 mM KCl, 149 mM NaCl, 0.8 mM CaCl2, 1.7 mM MgCl2, 10 mM Glucose, 0.1% BSA. pH 7.4) containing 2 μM Fluo 4 (Molecular Probes; F-14201), 0.01% pluronic acid (Molecular Probes; P-6866) and 2.5 mM probenecid (Molecular Probes; P36400). Cells were incubated in the dark at 25° C. for 60 min. Then dye containing buffer was discarded and […] basic (1 mM KCl) or alternative (30 mM KCl) assay buffer was added. The alternative assay buffer contained altered concentrations of KCl (30 mM) and NaCl (120 mM) and was used in order to promote the inactivated channel state. After that 25 μL of basic or alternative assay buffer with or without test compound were added and cells were incubated again in the dark at 25° C. for 15 min. Fluorescence intensity was measured on a FLIPR 3 instrument (Molecular Devices Corp., Sunnyvale, Calif.) with excitation at 480 nm and emission at 535 nm. After continuously reading fluorescence for 30 sec, 50 μL of basic assay buffer containing 210 mM KCl (NaCl omitted) were added for depolarization. Peak fluorescent signal intensity was determined and the amplitude of the peak signal, normalized to base line, was used to measure channel inhibition by test compounds.

T1 sequence (Q00975 whole entry): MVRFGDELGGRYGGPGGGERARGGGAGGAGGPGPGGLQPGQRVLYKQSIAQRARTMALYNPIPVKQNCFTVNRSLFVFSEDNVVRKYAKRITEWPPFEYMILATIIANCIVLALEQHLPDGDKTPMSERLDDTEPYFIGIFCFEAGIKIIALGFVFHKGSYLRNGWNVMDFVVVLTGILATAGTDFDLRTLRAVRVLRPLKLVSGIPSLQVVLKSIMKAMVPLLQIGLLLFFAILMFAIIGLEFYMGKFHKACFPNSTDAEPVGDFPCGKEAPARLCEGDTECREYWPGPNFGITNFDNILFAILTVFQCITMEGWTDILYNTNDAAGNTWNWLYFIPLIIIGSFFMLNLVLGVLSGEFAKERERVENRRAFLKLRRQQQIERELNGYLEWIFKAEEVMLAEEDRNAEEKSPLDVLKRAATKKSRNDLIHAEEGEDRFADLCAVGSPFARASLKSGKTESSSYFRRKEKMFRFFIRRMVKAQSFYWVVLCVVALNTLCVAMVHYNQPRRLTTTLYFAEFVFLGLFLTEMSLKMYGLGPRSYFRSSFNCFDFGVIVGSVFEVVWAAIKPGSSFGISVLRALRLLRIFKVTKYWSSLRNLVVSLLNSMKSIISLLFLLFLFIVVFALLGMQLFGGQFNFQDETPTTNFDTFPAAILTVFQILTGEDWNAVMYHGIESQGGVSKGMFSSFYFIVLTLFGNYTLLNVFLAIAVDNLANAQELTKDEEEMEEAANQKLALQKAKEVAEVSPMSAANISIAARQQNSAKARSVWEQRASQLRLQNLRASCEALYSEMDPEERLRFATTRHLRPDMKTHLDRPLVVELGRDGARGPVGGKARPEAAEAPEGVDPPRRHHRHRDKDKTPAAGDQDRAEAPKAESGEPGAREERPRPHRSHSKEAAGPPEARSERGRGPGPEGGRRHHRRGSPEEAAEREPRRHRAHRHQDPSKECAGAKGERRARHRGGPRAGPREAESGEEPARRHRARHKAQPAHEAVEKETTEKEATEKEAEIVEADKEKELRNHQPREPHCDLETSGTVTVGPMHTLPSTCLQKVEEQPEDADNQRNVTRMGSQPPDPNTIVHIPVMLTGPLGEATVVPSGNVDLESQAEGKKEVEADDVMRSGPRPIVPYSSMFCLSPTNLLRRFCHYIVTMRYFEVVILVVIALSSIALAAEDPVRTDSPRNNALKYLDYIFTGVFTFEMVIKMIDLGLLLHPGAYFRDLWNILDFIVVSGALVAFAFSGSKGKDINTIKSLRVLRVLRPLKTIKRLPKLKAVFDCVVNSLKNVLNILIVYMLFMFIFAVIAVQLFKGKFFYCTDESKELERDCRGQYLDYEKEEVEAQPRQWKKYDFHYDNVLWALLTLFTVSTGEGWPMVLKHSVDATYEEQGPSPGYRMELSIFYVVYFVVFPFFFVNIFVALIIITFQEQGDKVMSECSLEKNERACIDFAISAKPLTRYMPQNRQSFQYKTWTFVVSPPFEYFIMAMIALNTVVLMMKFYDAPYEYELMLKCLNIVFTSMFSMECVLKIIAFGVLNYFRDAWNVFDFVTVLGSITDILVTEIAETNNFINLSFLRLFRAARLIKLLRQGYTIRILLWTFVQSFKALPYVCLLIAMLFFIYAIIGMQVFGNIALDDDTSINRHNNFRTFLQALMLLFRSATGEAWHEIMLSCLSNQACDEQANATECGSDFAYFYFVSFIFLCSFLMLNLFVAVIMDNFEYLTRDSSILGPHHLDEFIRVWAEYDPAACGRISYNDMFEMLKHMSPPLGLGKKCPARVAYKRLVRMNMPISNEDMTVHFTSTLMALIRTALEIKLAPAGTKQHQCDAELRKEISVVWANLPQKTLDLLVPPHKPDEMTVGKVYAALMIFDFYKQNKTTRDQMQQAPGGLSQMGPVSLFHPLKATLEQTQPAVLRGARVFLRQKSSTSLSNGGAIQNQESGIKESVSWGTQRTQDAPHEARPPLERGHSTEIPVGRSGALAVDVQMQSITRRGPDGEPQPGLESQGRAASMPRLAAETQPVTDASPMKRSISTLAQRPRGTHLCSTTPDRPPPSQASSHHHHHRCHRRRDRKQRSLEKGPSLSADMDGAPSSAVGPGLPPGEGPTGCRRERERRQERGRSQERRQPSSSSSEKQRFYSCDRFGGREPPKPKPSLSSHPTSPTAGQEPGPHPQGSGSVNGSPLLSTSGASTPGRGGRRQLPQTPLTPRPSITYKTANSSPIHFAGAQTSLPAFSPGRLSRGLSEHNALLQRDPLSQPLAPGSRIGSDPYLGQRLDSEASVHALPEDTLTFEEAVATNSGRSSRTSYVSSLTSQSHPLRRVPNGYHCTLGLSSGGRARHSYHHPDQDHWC

SMILES | inhibition at 3 µM [%] | Activity Category: %-Inhib (CaV2.2) @3 μM @30 mM KCl (3 μM test compound)
CC(C)(C(N)=O)n1nc(C(F)(F)F)cc1C1CC(C)(S(=O)(=O)c2cccc(C(F)(F)F)c2)CCO1 (stereo not drawn) [Example 26 cis-EN1, 2-Methyl-2-[5-[4-methyl-4-[[3-(trifluoromethyl)phenyl]sulfonyl]-tetrahydro-pyran-2-yl]-3-(trifluoromethyl)-1H-pyrazol-1-yl]-propionamide] | > 95 | 
CC(C)(C(N)=O)n1nc(C(F)(F)F)cc1C1CC(C)(S(=O)(=O)c2cccc(C(F)(F)F)c2)CCO1 (stereo not drawn) [Example 26 cis-EN2, 2-Methyl-2-[5-[4-methyl-4-[[3-(trifluoromethyl)phenyl]sulfonyl]-tetrahydro-pyran-2-yl]-3-(trifluoromethyl)-1H-pyrazol-1-yl]-propionamide] |  | B (“B”: %-Inhibition >75% up to ≤95%)
CN(C)C(=O)Cn1nc(C(F)(F)F)cc1C1CC(C)(S(=O)(=O)c2cccc(C(F)(F)F)c2)CCO1 (stereo not drawn) [Example 28 cis-EN1, N,N-Dimethyl-2-[5-[4-methyl-4-[[3-(trifluoromethyl)phenyl]sulfonyl]-tetrahydro-pyran-2-yl]-3-(trifluoromethyl)-1H-pyrazol-1-yl]-acetamide] | 75 to 95 | 
CNC(=O)Cn1nc(C(F)(F)F)cc1C1CC(C)(S(=O)(=O)c2cccc(C(F)(F)F)c2)CCO1 (stereo not drawn) [Example 29 cis-EN1, N-Methyl-2-[5-[4-methyl-4-[[3-(trifluoromethyl)phenyl]sulfonyl]-tetrahydro-pyran-2-yl]-3-(trifluoromethyl)-1H-pyrazol-1-yl]-acetamide] | 75 to 95 | 
